Test results taken from patent US4332794A, “6"-Deoxydibekacin, 4",6"-dideoxydibekacin and 1-N-aminoacyl derivatives thereof, and the production of these new compounds” (Zaidan Hojin Biseibutsu Kagaku Kenkyu Kai, priority 1979, dated 1982).
Converted amounts (≈) assume the structure as drawn.

Key:
[1] = tested on: Staphylococcus aureus Smith; assay: MIC, serial dilution on nutrient agar; type: cell-based; conditions: 37° C., 18 hours
[2] = tested on: Staphylococcus aureus APO1; assay: MIC, serial dilution on nutrient agar; type: cell-based; conditions: APO1, 18 h
[3] = tested on: Staphylococcus epidermidis 109; assay: MIC, serial dilution on nutrient agar; type: cell-based; conditions: Staphylococcus epidermidis, 109, 18 h
[4] = tested on: Mycrococcus flavus FDA 16; assay: MIC, serial dilution on nutrient agar; type: cell-based; conditions: 18 h
Bacillus anthracis = assay: microbe, parasite or virus in culture; type: cell-based; conditions: 18 h
[5] = tested on: Mycobacterium smegmatis ATCC 607; assay: MIC, serial dilution on nutrient agar; type: cell-based; conditions: Mycolicibacterium smegmatis, ATCC607, 18 h
Escherichia coli NIHJ = assay: MIC, serial dilution on nutrient agar; type: cell-based; conditions: 18 h
Escherichia coli K-12 = assay: MIC, serial dilution on nutrient agar; type: cell-based; conditions: K12, 18 h
Escherichia coli K-12 R5 = assay: microbe, parasite or virus in culture; type: cell-based; conditions: K12R5, 18 h
[6] = tested on: Escherichia coli K-12 ML 1410; assay: MIC, serial dilution on nutrient agar; type: cell-based; conditions: K12ML1410, nutrient agar, 37° C., 18 hours, read-out: MIC
[7] = tested on: Escherichia coli K-12 1410 R81; assay: MIC, serial dilution on nutrient agar; type: cell-based; conditions: K121410R81, 18 h
[8] = tested on: Escherichia coli K-12 LA 290 R55; assay: microbe, parasite or virus in culture; type: cell-based; conditions: K12LA290R55, 18 h
[9] = tested on: Escherichia coli K-12 LA 290 R56; assay: microbe, parasite or virus in culture; type: cell-based; conditions: K12LA290R56, 18 h
[10] = tested on: Escherichia coli K-12 LA 290 R64; assay: MIC, serial dilution on nutrient agar; type: cell-based; conditions: K12LA290R64, 18 h
Escherichia coli W677 = assay: MIC, serial dilution on nutrient agar; type: cell-based; conditions: W677, 18 h
[11] = tested on: Escherichia coli JR66/W677; assay: MIC, serial dilution on nutrient agar; type: cell-based; conditions: JR66/W677, nutrient agar, 37° C., 18 hours, read-out: MIC
Escherichia coli JR255 = assay: microbe, parasite or virus in culture; type: cell-based; conditions: JR255, 18 h
[12] = tested on: Klebsiella pneumoniae 22 #3038; assay: MIC, serial dilution on nutrient agar; type: cell-based; conditions: nutrient agar, 37° C., 18 hours, read-out: MIC
[13] = tested on: Shigella dysenteriae JS11910; assay: MIC, serial dilution on nutrient agar; type: cell-based; conditions: JS11910, 18 h
Salmonella typhi F63 = assay: MIC, serial dilution on nutrient agar; type: cell-based; conditions: Salmonella enterica, 18 h
Proteus rettgeri GN311 = assay: MIC, serial dilution on nutrient agar; type: cell-based; conditions: Providencia rettgeri, GN311, 18 h
Proteus rettgeri GN466 = assay: MIC, serial dilution on nutrient agar; type: cell-based; conditions: Providencia rettgeri, GN466; nutrient agar, 37° C., 18 hours; read-out: MIC
[14] = tested on: Escherichia coli K-12 ML 1629; assay: MIC, serial dilution on nutrient agar; type: cell-based; conditions: K12ML1629, 37° C., 18 hours
Experimental: (§1) The minimum inhibitory concentrations (mcg/ml) of 6"-deoxydibekacin (abbreviated as 6"-DDKB), 4",6"-dideoxydibekacin (abbreviated as 4",6"-DDKB), 1-N-(L-4-amino-2-hydroxybutyryl)-6"-deoxydibekacin (abbreviated as AHB-6"-DDKB) and 1-N-(L-4-amino-2-hydroxybutyryl)-4",6"-dideoxydibekacin (abbreviated as AHB-4",6"-DDKB) of this invention against various microorganisms were determined according to serial dilution method on a nutrient agar medium at 37° C., the estimation being made after 18 hours incubation. For comparison purpose, the minimum inhibitory concentrations of dibekacin (abbreviated as DKB) were also determined in the same manner as stated above.

[15] = tested on: Escherichia coli K-12 ML 1630; assay: MIC, serial dilution on nutrient agar; type: cell-based; conditions: K12ML1630, 37° C., 18 hours
Experimental: as §1

[16] = tested on: Klebsiella pneumoniae PCI 602; assay: MIC, serial dilution on nutrient agar; type: cell-based; conditions: PCI602, 37° C., 18 hours
Experimental: as §1

Proteus vulgaris OX19 = assay: MIC, serial dilution on nutrient agar; type: cell-based; conditions: 37° C., 18 hours
Experimental: as §1

Providencia 2991 = assay: MIC, serial dilution on nutrient agar; type: cell-based; conditions: 37° C., 18 hours
Experimental: as §1

[17] = tested on: Pseudomonas aeruginosa 21-75; assay: MIC, serial dilution on nutrient agar; type: cell-based; conditions: 2175, 37° C., 18 hours
Experimental: as §1

[18] = tested on: Pseudomonas maltophilia GN907; assay: MIC, serial dilution on nutrient agar; type: cell-based; conditions: Stenotrophomonas maltophilia, 37° C., 18 hours
Experimental: as §1

Serratia marcescens = assay: MIC, serial dilution on nutrient agar; type: cell-based; conditions: 37° C., 18 hours
Experimental: as §1

[19] = tested on: Staphylococcus aureus 209P; assay: MIC, serial dilution on nutrient agar; type: cell-based; conditions: 37° C., 18 hours
Experimental: as §1

Providencia Pv 16 = assay: MIC, serial dilution on nutrient agar; type: cell-based; conditions: PV16, nutrient agar, 37° C., 18 hours, read-out: MIC
[20] = tested on: Pseudomonas aeruginosa A3; assay: MIC, serial dilution on nutrient agar; type: cell-based; conditions: A3, nutrient agar, 37° C., 18 hours, read-out: MIC
[21] = tested on: Pseudomonas aeruginosa No. 12; assay: MIC, serial dilution on nutrient agar; type: cell-based; conditions: NO.12, nutrient agar, 37° C., 18 hours, read-out: MIC
[22] = tested on: Pseudomonas aeruginosa TI-13; assay: MIC, serial dilution on nutrient agar; type: cell-based; conditions: TI13, 18 h
[23] = tested on: Pseudomonas aeruginosa 99; assay: MIC, serial dilution on nutrient agar; type: cell-based; conditions: Pseudomonas aeruginosa, 99; nutrient agar, 37° C., 18 hours; read-out: MIC
[24] = tested on: Pseudomonas aeruginosa PST1; assay: MIC, serial dilution on nutrient agar; type: cell-based; conditions: PST1, 18 h
intravenous LD50 in mice = conditions: mouse, in vivo, estimated
oto-toxicity = conditions: compounds of this invention

In the case of `C[C@H]1O[C@H](O[C@@H]2[C@@H](O)[C@H](O[C@H]3O[C@H](CN)CC[C@H]3N)[C@@H](N)C[C@H]2NC(=O)[C@@H](O)CCN)[C@H](O)[C@@H](N)[C@@H]1O` [AHB-6"-DDKB, 1-N-(L-4-amino-2-hydroxybutyryl)-6"-deoxydibekacin], the MIC [1] is reported as < 0.2 µg/mL, the MIC [2] is reported as 1.56 µg/mL (≈ 2.91 µM) and the MIC [3] is reported as 1.56 µg/mL (≈ 2.91 µM). It also gave an MIC [4] of 1.56 µg/mL (≈ 2.91 µM), an MIC (Bacillus anthracis) of 0.2 µg/mL (≈ 0.373 µM) and an MIC [5] of 0.39 µg/mL (≈ 0.727 µM). It also gave an MIC (Escherichia coli NIHJ) of 1.56 µg/mL (≈ 2.91 µM), an MIC (Escherichia coli K-12) of 1.56 µg/mL (≈ 2.91 µM) and an MIC (Escherichia coli K-12 R5) of 50 µg/mL (≈ 93.2 µM). It also gave an MIC [6] of 3.13 µg/mL (≈ 5.83 µM), an MIC [7] of 1.56 µg/mL (≈ 2.91 µM) and an MIC [8] of 3.13 µg/mL (≈ 5.83 µM). It also gave an MIC [9] of 1.56 µg/mL (≈ 2.91 µM), an MIC [10] of 1.56 µg/mL (≈ 2.91 µM) and an MIC (Escherichia coli W677) of 1.56 µg/mL (≈ 2.91 µM). For the same compound, the MIC [11] was 3.13 µg/mL (≈ 5.83 µM), the MIC (Escherichia coli JR255) was 1.56 µg/mL (≈ 2.91 µM) and the MIC [12] was 3.13 µg/mL (≈ 5.83 µM). It also gave an MIC [13] of 6.25 µg/mL (≈ 11.6 µM), an MIC (Salmonella typhi F63) of 0.39 µg/mL (≈ 0.727 µM) and an MIC (Proteus rettgeri GN311) of 50 µg/mL (≈ 93.2 µM). It also gave an MIC (Proteus rettgeri GN466) of 12.5 µg/mL (≈ 23.3 µM), an MIC [14] of 1.56 µg/mL (≈ 2.91 µM) and an MIC [15] of 3.13 µg/mL (≈ 5.83 µM). The MIC [16] was 1.56 µg/mL (≈ 2.91 µM), the MIC (Proteus vulgaris OX19) was 0.78 µg/mL (≈ 1.45 µM) and the MIC (Providencia 2991) was 100 µg/mL (≈ 186 µM). The MIC [17] was 100 µg/mL (≈ 186 µM), the MIC [18] was > 100 µg/mL and the MIC (Serratia marcescens) was 50 µg/mL (≈ 93.2 µM). The MIC [19] was 1.56 µg/mL (≈ 2.91 µM), the MIC (Providencia Pv 16) was 25 µg/mL (≈ 46.6 µM) and the MIC [20] was 3.13 µg/mL (≈ 5.83 µM). For the same compound, the MIC [21] was 25 µg/mL (≈ 46.6 µM), the MIC [22] was 6.25 µg/mL (≈ 11.6 µM) and the MIC [23] was 12.5 µg/mL (≈ 23.3 µM). The MIC [24] was 50 µg/mL (≈ 93.2 µM), the LD50 (intravenous LD50 in mice) was > 80 mg/kg and the oto-toxicity (oto-toxicity) was “low oto-toxicity”.
